The values below come from US20080280920A1, “Plasminogen Activator Inhibitor-1 Inhibitors” (priority 2005, published 2008).

Assay [1] concerns the target T1, wildtype human PAI-1 (Homo sapiens, UniProt P05121).
T1 construct: purchased Molecular Innovations Lot# HWT-804
The assay can be described thus: PAI-1/uPA assay (residual uPA activity, fluorescent substrate SpectroFluor). Format: biochemical. The conditions noted are these: within the concentration range tested. In short, it runs like this: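 Wildtype human PAI-1 (6 nM) preincubated 15-20 min at RT with compound (10 nM to 100 μM final) in HEPES buffer pH 6.6, then with uPA (8 nM, HMW) 5 min. SpectroFluor (0.1 mM) cleavage followed 30 min at 37 °C (ex 360/em 440 nm); PAI-1 activity expressed as % of untreated PAI-1.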

Assay [2] relates to 60 different human cancer cell lines. The assay can be described thus: NCI in vitro anticancer screen (whole panel). The settings on record: NCI screen, 48 h. The assay is classed as cell-based.
Assay [3] has as its system SR. Nature of the assay: NCI anticancer screen, SR. The assay is classed as cell-based, human. The conditions noted are these: Homo sapiens, Leukemia, 48 h.
Assay [4] deals with EKVX. The assay can be described thus: NCI anticancer screen, EKVX. Format: cell-based, human. The settings on record: Homo sapiens, Non-Small Cell Lung, 48 h.
Assay [5] concerns HOP-92. Nature of the assay: NCI anticancer screen, HOP-92. Format: cell-based, human. The conditions noted are these: Homo sapiens; HOP-92, Non-Small Cell Lung, 48 h.
The test system of assay [6] is NCI-H23. The assay can be described thus: NCI anticancer screen, NCI-H23. Format: cell-based, human. The conditions noted are these: Homo sapiens; NCI-H23, Non-Small Cell Lung, 48 h.
Assay [7] deals with NCI-H322M. Nature of the assay: NCI anticancer screen, NCI-H322M. Format: cell-based, human. The conditions noted are these: Homo sapiens, Non-Small Cell Lung, 48 h.
Assay [8] relates to NCI-H460. Nature of the assay: NCI anticancer screen, NCI-H460. Format: cell-based, human. The conditions noted are these: Homo sapiens; NCI-H460, Non-Small Cell Lung, 48 h.
In assay [9] the test system is NCI-H522. Nature of the assay: NCI anticancer screen, NCI-H522. The assay is classed as cell-based, human. The settings on record: Homo sapiens; NCI-H522, Non-Small Cell Lung, 48 h.
The subject of assay [10] is KM12. The assay can be described thus: NCI anticancer screen, KM12. Format: cell-based, human. The settings on record: Homo sapiens; KM12, Colon, 48 h.
Assay [11] deals with SW-620. Nature of the assay: NCI anticancer screen, SW-620. The assay is classed as cell-based, human. The settings on record: Homo sapiens; SW-620, Colon, 48 h.
Assay [12] relates to SF-295. The assay can be described thus: NCI anticancer screen, SF-295. The assay is classed as cell-based, human. The settings on record: Homo sapiens; SF-295, CNS, 48 h.
The subject of assay [13] is SNB-19. Nature of the assay: NCI anticancer screen, SNB-19. The assay is classed as cell-based, human. The conditions noted are these: Homo sapiens; SNB-19, CNS, 48 h.
Assay [14] deals with LOX IMVI. The assay can be described thus: NCI anticancer screen, LOX IMVI. The assay is classed as cell-based, human. The conditions noted are these: Homo sapiens, Melanoma, 48 h.
The test system of assay [15] is SK-MEL-2. Nature of the assay: NCI anticancer screen, SK-MEL-2. The assay is classed as cell-based, human. The conditions noted are these: Homo sapiens; SK-MEL-2, Melanoma, 48 h.
Assay [16] deals with UACC-257. Nature of the assay: NCI anticancer screen, UACC-257. Format: cell-based, human. The conditions noted are these: Homo sapiens; UACC-257, Melanoma, 48 h.
Assay [17] has as its system IGR-OV1. The assay can be described thus: NCI anticancer screen, IGR-OV1. The assay is classed as cell-based, human. The conditions noted are these: Homo sapiens, IGROV-1; IGR-OV1, Ovarian, 48 h.
Assay [18] deals with OVCAR-3. The assay can be described thus: NCI anticancer screen, OVCAR-3. The conditions noted are these: Homo sapiens; OVCAR-3, Ovarian, 48 h. The assay is classed as cell-based, human.
The test system of assay [19] is ACHN. The assay can be described thus: NCI anticancer screen, ACHN. The assay is classed as cell-based, human. The settings on record: Homo sapiens, Renal, 48 h.
For assay [20], the system named is TK-10. Nature of the assay: NCI anticancer screen, TK-10. Format: cell-based, human. The conditions noted are these: Homo sapiens; TK-10, Renal, 48 h.
In assay [21] the test system is UO-31. Nature of the assay: NCI anticancer screen, UO-31. Format: cell-based, human. The settings on record: Homo sapiens; UO-31, Renal, 48 h.
The subject of assay [22] is DU-145. Nature of the assay: NCI anticancer screen, DU-145. Format: cell-based, human. The conditions noted are these: Homo sapiens; DU-145, Prostate, 48 h.
Assay [23] deals with MDA-MB-231/ATCC. Nature of the assay: NCI anticancer screen, MDA-MB-231/ATCC. The assay is classed as cell-based, human. The settings on record: Homo sapiens, Breast, 48 h.

T1 sequence (P05121 24-402): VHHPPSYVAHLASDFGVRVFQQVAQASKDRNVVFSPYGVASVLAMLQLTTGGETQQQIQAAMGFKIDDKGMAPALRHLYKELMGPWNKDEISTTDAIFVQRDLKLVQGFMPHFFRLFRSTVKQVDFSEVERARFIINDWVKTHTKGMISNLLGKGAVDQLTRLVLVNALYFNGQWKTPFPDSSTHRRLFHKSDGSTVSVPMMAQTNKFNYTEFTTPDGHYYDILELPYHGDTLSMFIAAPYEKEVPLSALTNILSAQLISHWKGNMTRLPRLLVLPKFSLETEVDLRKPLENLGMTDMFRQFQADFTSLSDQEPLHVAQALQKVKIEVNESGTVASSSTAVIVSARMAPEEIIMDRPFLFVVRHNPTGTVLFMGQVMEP

One may read the GI50 as the concentration at which growth is held to half of that of the control. A lower GI50 goes with greater sensitivity of the cells. Take `COc1cc(CNc2ccc(C(=O)OC(C)(C)C)cc2)cc(CN2CCN(c3ccccn3)CC2)c1O` [Compound Q012145T]: the “Conc. of compound required for PAI-1 inhibition (result in words)” value in assay [1] is listed as “No inhibition”. For the same compound, the “growth and proliferation of human primary cancer cell-lines (in words)” value in assay [2] is “inhibited growth and proliferation”. Also, the GI50 in assay [3] was 8.3 µM; in [4] it was 51.5 µM; in assay [5] it was 6.57 µM; in assay [6], 51.6 µM; in assay [7] it was > 100 µM; in assay [8] it was 21.9 µM. Besides, the GI50 in assay [9] was 52.9 µM; in [10] it was 80.1 µM; in assay [11] it was 63.7 µM; in assay [12], 69.9 µM; in assay [13], > 100 µM; in assay [14], 60.4 µM. For the same compound, the GI50 in [15] is > 100 µM; in [16], 33 µM; in assay [17], > 100 µM; in assay [18], 37.5 µM; in [19], > 100 µM; in [20], 70.4 µM. Also, the GI50 in assay [21] is 67.2 µM; in assay [22], > 100 µM; in [23] it was > 100 µM.
